# In PMC8458281, “Computational modeling and experimental validation of the EPI-X4/CXCR4 complex allows rational design of small peptide antagonists” (Communications Biology, 2021):
# No end group written: not given here.
# System: zebrafish embryos
# Experiment: Toxicity assay in zebrafish embryos
# Type: in vivo
# Details: embryos exposed 24 h from 24 hpf to 3, 30 and 300 µM in E3; scored at 48 hpf for cytotoxicity, developmental toxicity, cardiotoxicity, neurotoxicity; two independent assays, 10 × 3 embryos each
# Protocol: Finally, we evaluated the toxicity of EPI-X4 JM#21 408–414-NH2 in zebrafish embryos, a widely used in vivo model for toxicity studies. We exposed embryos for 24 h starting at 24 h post fertilization (hpf), when most organ systems have already developed and are functional. Transparency of the embryos allows for evaluation by light microscopy not only of mortality, but also of sublethal cytotoxicity (necrosis, lysis), developmental toxicity (developmental delay, malformations), or toxicity affecting specific organ systems, in particular cardiotoxicity (heart edema, reduced circulation), and neurotoxicity (reduced touch escape response).
# Wild-type zebrafish embryos were dechorionated at 24 hpf using digestion with 1 mg/ml pronase (Sigma) in E3 medium ([…]). […] At 48 hpf (after 24 h of incubation) embryos were scored in a stereomicroscope for signs of cytotoxicity (lysis and/or necrosis), developmental toxicity (delay and/or malformations), or cardiotoxicity (heart edema and/or reduced or absent circulation). Each embryo was also touched with a needle, and reduced or absent touch responses (escape movements) were evaluated as signs of neurotoxicity if and only if no signs of cytotoxicity were present in the same embryo. […]
# T2: severe damage so that other phenotypes cannot be assessed (L3, L4, Nec2)
substance,measurement,value
ILRWSRK-NH2 [JM#21 408–414-NH2],toxicity in zebrafish embryos,nontoxic even at high concentrations
